Data taken from US9446047B2, “Substituted 2,3-dihydro-1H-inden-1-one retinoic acid-related orphan nuclear receptor antagonists for treating multiple sclerosis” (Arrien Pharmaceuticals LLC, priority 2013, dated 2016).
Where two headings read alike, the source gives them in different places.

Assays:
[1] = tested on: IL-17 release from CD4+ T cells; test: Cytokine IL-17 estimation by HTRF, IL-17 release from CD4+ T cells; type: cell-based; conditions: Homo sapiens, HTRF
[2] = tested on: IL-17 production; test: Anti-CD3e antibody induced CD4+ T cell cytokine IL-17 production in male BALB/c mice (serum ELISA); type: in vivo, mouse; conditions: Dexamethasone treatment; serum at 1.5 h after anti-CD3e antibody
Protocol: Efficacy of substituted 2, 3-dihydro-1H-inden-1-one containing selected compounds on Inhibition of Anti-CD3e Antibody induced CD4^+ T cell Cytokine-IL-17 Production in Male BALB/c Mice
A quantitative analysis of mouse IL-17 sandwich ELISA was conducted from the collected serum samples (Mouse IL-17 ELISA Ready-DuoSet ELISA kit, from R&D Systems, USA). The serum samples tested were collected from mice after 1.5 h of anti-CD3e antibody challenge, before antibody challenge, the mice were treated with different doses of test compounds or Dexamethasone as mentioned above in experimental design. The capture antibody was diluted in coating buffer (1×PBS) and transferred into each well. The plate was sealed and incubated overnight at RT. The following day the wells of the plate were aspirated and washed (3 times), allowing a one minute soak time in each step. The plate was blocked using 1% BSA in PBS, sealed, and incubated in ambient conditions for not less than one hour. After the incubation period, the plate was washed as described above, and the standards and serum samples were added to the appropriate wells and incubated for two hours at RT. […] The plate was read at 450/570 nm using the Microplate Absorbance Reader (SpectraMax; M3). […] Percent inhibition of cytokine production was calculated for all groups compared to positive control.

[3] = target: T1, RORγt (Homo sapiens, UniProt P51449); test: RORγt-activated IL-17A Prom/LUCPorter HEK 293 cells luciferase reporter assay; type: cell-based; conditions: IL-17A Prom/LUCPorter HEK 293 cells transfected with RORγt, 16 h; read-out: RORγt Cell Specific
T1 construct: host or cells: IL-17A Prom/LUCPorter HEK 293 cell line (IMGENEX, IML-301)
T1 sequence (P51449 1-497 isoform P51449-2): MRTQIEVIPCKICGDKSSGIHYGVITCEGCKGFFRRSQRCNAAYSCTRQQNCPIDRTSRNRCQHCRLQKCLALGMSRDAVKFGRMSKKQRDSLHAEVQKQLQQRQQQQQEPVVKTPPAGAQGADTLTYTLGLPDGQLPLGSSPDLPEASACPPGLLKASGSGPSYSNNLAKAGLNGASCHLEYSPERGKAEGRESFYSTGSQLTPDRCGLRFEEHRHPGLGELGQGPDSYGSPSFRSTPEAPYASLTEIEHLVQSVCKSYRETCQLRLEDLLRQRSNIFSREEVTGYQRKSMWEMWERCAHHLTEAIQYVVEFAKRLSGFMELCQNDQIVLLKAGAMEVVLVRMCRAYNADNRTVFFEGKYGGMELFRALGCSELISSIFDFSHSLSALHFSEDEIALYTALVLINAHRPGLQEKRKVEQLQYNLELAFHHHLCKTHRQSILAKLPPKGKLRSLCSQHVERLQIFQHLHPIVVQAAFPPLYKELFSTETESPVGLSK

[4] = Rat pharmacokinetics, intravenous bolus and oral gavage; type: in vivo, male Sprague Dawley rats; conditions: plasma
Protocol: The bio-availability and pharmacokinetics of some compounds of the present invention were examined in male Sprague Dawley rats. A total of 6 male rats were used in the study. The study was performed using parallel design (n=3) with serial sampling.
Dose formulations were prepared on the day of doing. Blood samples were collected at 0.083 (only IV), 0.25, 0.5, 1, 2, 4, 8 and 24 h post-dose. At each time point, approximately 0.2 mL of blood was withdrawn from each cannulated rat through jugular vein and transferred to a pre-labeled microfuge tube containing 20 μL of […] K2EDTA per mL of blood. Following collection of blood sample, equal volume of heparinized saline was flushed into jugular vein of rat. The blood samples were centrifuged at 5000 g for 5 min at 4±2° C. The plasma was separated within 30 min of scheduled time and stored below −60° C. until bio-analysis. The plasma samples were analyzed for selected test EXAMPLES using a fixed-for purpose liquid chromatographic tandem mass spectrometric detection (LC-MS/MS) method with a lower limit of quantification of 2.21 ng/mL. The pharmacokinetic parameters for select EXAMPLES were calculated using the non-compartmental analysis tool of validated WinNonlin® software (Version 5.2).
Pharmacokinetic parameters (mean±SD; n=3) of 7 following intravenous bolus and oral gavage administration of 7 solution in male Sprague Dawley rats are shown in TABLE 4 below: […]

[5] = target: T2, RORγ-LBD (RORγt) (Homo sapiens, UniProt P51449); test: TR-FRET RORγt Binding Assay; conditions: 6-His(GST)RORγ-LBD, SRC1_2 peptide, read-out: RORγt Binding
T2 construct: the 6-His-(GST) RORγ-LBD was used which expressed and purified from baculovirus infected Sf-21 insect cells; made in house; host or cells: baculovirus-infected Sf-21 insect cells
T2 sequence (P51449 269-508 limits assumed): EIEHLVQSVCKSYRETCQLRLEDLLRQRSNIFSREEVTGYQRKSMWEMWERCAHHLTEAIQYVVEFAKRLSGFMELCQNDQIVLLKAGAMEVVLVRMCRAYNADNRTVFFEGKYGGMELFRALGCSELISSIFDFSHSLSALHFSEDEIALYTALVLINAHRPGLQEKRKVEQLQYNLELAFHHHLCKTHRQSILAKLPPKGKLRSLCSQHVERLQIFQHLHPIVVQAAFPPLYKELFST

[6] = IV 2 mg/kg, solution, male Sprague Dawley rats, mean±SD n=3
[7] = PO 10 mg/kg, solution, male Sprague Dawley rats, mean±SD n=3

C[C@@H]1C[C@H]2[C@@H]3CCC4=CC(=O)C=C[C@]4(C)[C@@]3(F)[C@@H](O)C[C@]2(C)[C@@]1(O)C(=O)CO [Dexamethasone, reference compound]
IC50 ([1]; CD4+ T lymphocytes, standards, read-out: IC50 of IL-17 inhibition (assay standards)): 14 nM
reduction in IL-17 production compared to positive control group [2]: 94%

COc1cc2c(cc1N1CCOCC1)CC(Cc1cccc(OC(F)(F)F)c1)C2=O (stereo not drawn) [compound 31, 6-methoxy-5-morpholino-2-(3-(trifluoromethoxy)benzyl)-2,3-dihydro-1H-inden-1-one]
IC50 [3]: > 10000 nM
bioavailability ([4]; male, Sprague Dawley, PO 10 mg/kg vs IV 2 mg/kg, AUCinf and nominal doses used, read-out: F (bioavailability)): 19%
AUC(0-inf) [4, 6]: 589 ± 63.9 ng·h/mL
AUC(0-t) [4, 6]: 572 ± 57.4 ng·h/mL
clearance [4, 6]: 57 ± 5.85 mL/min/kg
half-life [4, 6]: 6.63 ± 4.92 h
Cmax ([4]; IV 2 mg/kg, solution, male Sprague Dawley rats, mean±SD n=3, footnote b: back extrapolated concentration at time zero): 1940 ± 482 ng/mL
AUC(0-inf) [4, 7]: 558 ± 125 ng·h/mL
AUC(0-t) [4, 7]: 553 ± 124 ng·h/mL
Cmax [4, 7]: 176 ± 22.7 ng/mL
Tmax ([4]; PO 10 mg/kg, solution, male Sprague Dawley rats, median (min-max)): 2 h
IC50 ([1]; IL-17 release from CD4+ T cells, read-out: IL-17 Inhibition): > 1000 nM
IC50 [5]: > 1000 nM
